From a compilation of properties of binary mixtures (doi:10.1016/j.fluid.2020.112621)

Assay: xn = mol fraction of the nth substance listed
Conditions: 101 kPa

CC(=O)[O-].CCCC[NH2+]CCO + CCCC[n+]1ccn(C)c1.O=S(=O)([N-]S(=O)(=O)C(F)(F)F)C(F)(F)F
viscosity [mPa·s]
Conditions | x1 = 0.1012 | x1 = 0.2257 | x1 = 0.3002 | x1 = 0.423 | x1 = 0.4998 | x1 = 0.6018 | x1 = 0.6987 | x1 = 0.8008 | x1 = 0.901 | x1 = 1
278.15 K | – | – | – | – | – | – | – | – | – | 6138
283.15 K | – | 183.1 | 226.7 | 353 | 481 | 745 | 1144.5 | – | 2806 | –
288.15 K | 96.2 | 134.7 | – | 248.3 | 331.5 | 499 | 745 | – | 1734.8 | 2230
293.15 K | 74.29 | 101.5 | 121.9 | 179.1 | 234.7 | 344 | 501 | 765 | 1109.3 | 1412.3
298.15 K | 58.45 | – | 92.4 | 132.2 | 170.1 | 243.1 | 346 | – | – | –
303.15 K | 46.77 | 61.09 | 71.45 | 99.7 | – | 176 | 244.7 | – | 495 | 617
308.15 K | 38.01 | 48.63 | – | 76.6 | 95.3 | 130.1 | 177.2 | 251.7 | 343 | –
313.15 K | 31.32 | 39.3 | 44.89 | 59.83 | – | 98.1 | – | – | – | –
318.15 K | 26.13 | – | 36.38 | 47.48 | 57.42 | 75.3 | – | 134.2 | – | 212.7
323.15 K | 22.05 | 26.72 | 29.87 | 38.23 | 45.61 | 58.7 | – | 100.8 | 130.4 | 155.3
328.15 K | 18.81 | – | 24.83 | 31.18 | 36.74 | – | 58.7 | 77 | – | 115.3
333.15 K | 16.19 | 19 | 20.86 | 25.75 | 29.98 | 37.29 | 46.37 | 59.7 | 74.8 | 87
338.15 K | 14.06 | 16.27 | 17.7 | 21.49 | 24.74 | 30.3 | – | 47.02 | 58 | 66.7
343.15 K | 12.31 | – | 15.16 | 18.12 | – | 24.92 | 30.07 | 37.51 | – | –
348.15 K | 10.85 | 12.23 | 13.09 | – | 17.4 | 20.7 | 24.65 | 30.28 | 36.31 | 40.87
353.15 K | 9.63 | 10.72 | 11.4 | 13.24 | 14.79 | 17.37 | 20.42 | 24.73 | – | –
358.15 K | 8.6 | 9.47 | – | – | – | 14.71 | 17.08 | 20.41 | 23.84 | 26.29
363.15 K | 7.73 | 8.41 | 8.82 | – | 10.96 | 12.57 | 14.42 | 17 | 19.63 | –
368.15 K | 6.98 | 7.51 | 7.83 | 8.76 | 9.54 | 10.81 | 12.27 | – | 16.31 | –
373.15 K | 6.33 | 6.75 | – | – | – | 9.37 | 10.52 | 12.11 | 13.67 | –

CCCC[n+]1ccn(C)c1.COP(=O)([O-])OC + CCCCC(=O)[O-].CC[NH+](CC)CCO
x2 = 0
Conditions | viscosity [mPa·s]
278.15 K | 3503
283.15 K | 2142
288.15 K | 1361.1
293.15 K | 895
298.15 K | 609
308.15 K | 305.8
313.15 K | 224.9
318.15 K | 168.9
333.15 K | 79.9
338.15 K | 64.25
343.15 K | 52.35
353.15 K | 36.02
363.15 K | 25.86

CCCC[n+]1ccn(C)c1.COP(=O)([O-])OC + CC(=O)O.CC(=O)[O-].CC[NH+](CC)CCO
x2 = 0
Conditions | viscosity [mPa·s]
278.15 K | 3503
288.15 K | 1361.1
293.15 K | 895
303.15 K | 426
308.15 K | 305.8
313.15 K | 224.9
318.15 K | 168.9
323.15 K | 129.4
328.15 K | 100.9
333.15 K | 79.9
338.15 K | 64.25
343.15 K | 52.35
348.15 K | 43.18
363.15 K | 25.86
368.15 K | 22.22
373.15 K | 19.25
